Earlier results as cited in patent publication US4902791A, “Nitrosourea derivatives, process for their preparation and medicaments containing them” (Sanofi S.A., priority 1983, dated 1990).

Experiments:
[1] = MONTERO et al; cited from earlier work
[2] = test system: L 1210 leucemia; conditions: IMBACH et al; cited from earlier work

SMILES	toxicity on the bone marrow [1]	oncostatic action on L 1210 leucemia [2]
CC(=O)OC[C@H]1O[C@@H](NC(=O)N(CCCl)N=O)[C@H](OC(C)=O)[C@@H](OC(C)=O)[C@@H]1OC(C)=O [2,3,4,6-tetra-O-acetyl 1-[3-(2-chlor-ethyl)nitroso-3-ureido]-1-desoxy-beta-D-glucopyranose]	lower toxicity on the bone marrow	–
CC(=O)O[C@@H]1[C@H](OC(C)=O)COC(NC(=O)N(CCCl)N=O)[C@@H]1OC(C)=O (stereo partly drawn) [RPCNU, 1-(2-chloro-ethyl) 3-(ribopyranosyl-2',3',4'-triacetate)-nitrosourea]	–	oncostatic action
O=NN(CCCl)C(=O)N[C@@H]1O[C@H](CO)[C@@H](O)[C@H](O)[C@H]1O [1-[3-(2-chloro-ethyl) 3-nitroso-ureido]-1-beta-D-glucopyranose]	lower toxicity on the bone marrow	–
